Measured values published in paper PMC12592139, “Quantitative assessment of the usability of electromechanical human-based modelling and simulation to replace Langendorff isolated rabbit heart experiments in the preclinical setting” (Frontiers in Pharmacology, 2025).
Where two headings read alike, the source gives them in different places.

Columns and labels:
isolated rabbit heart = assay: Ex vivo rabbit whole-heart Langendorff experiments (QT, left ventricular pressure); conditions: 0.1µM
Protocol: Routine experimental measurements used in this study were retrieved from already existing datasets collected and curated by Sanofi, contributing to the 3R principles in animal experimentation: replacement, reduction and refinement. All the procedures described in the present study were performed in agreement with the European regulation (2010/63/EU) and under the approval and control of Sanofi’s ethics committee. […]
Hearts were spontaneously beating. […] The left ventricular pressure was evaluated using a pressure transducer within a saline-filled latex balloon inserted into the ventricular chamber. […] The electrocardiogram was recorded with two flexible electrodes gently pressed on the epicardium. The ECG parameters PQ, QRS, and QT durations were calculated using specific software (HEM-Notocord systems).
After stabilization, pressure was recorded with the vehicle for 15 min and used as a control period. […]
Baseline biomarker measurements were established in control conditions for both ex vivo experiments and in silico simulations, benchmarking compound results at each concentration against these respective controls. Percent variations of means for experiments and simulations were calculated. In the population, these variations were measured against each cell’s control, and the group mean is calculated.

hNCX1 = biological target: T1, hNCX1 (Homo sapiens, UniProt P32418); assay: Cell-based calcium mobilization assay on CHO cell lines expressing NCX1; conditions: for IC50: Fluo4-AM
T1 construct: expressed in transfected cells; host or cells: CHO cell lines
Protocol: Furthermore, in vitro potency for 11 compounds was assessed on the NCX isoforms using a cell-based calcium mobilization assay on CHO cell lines expressing NCX1, NCX2 or NCX3. Measurements of intracellular calcium concentration employed a fluorescent imaging plate reader (Molecular Devices, United States) with the calcium-sensitive dye Fluo4-AM. Detailed methods are described in [Pelat et al. (2021)].

hERG channel = hERG channel (Homo sapiens, UniProt Q12809); assay: Automated patch-clamp (QPatch) on hERG channel
Protocol: (§1) The QPatch system (Sophion, Denmark) was used to investigate hERG, hNav1.5 and hKv4.3, and the SyncroPatch system (Nanion, Germany) was employed for hCav1.2. Recordings for all 37 compounds were performed at 21 °C.
(§2) When a Hill coefficient was not available, it was approximated as 1.

L-type calcium current = tested on: L-type calcium current; parameters: method as in Trovato et al., 2025; conditions: at EC50; ref Trovato et al., 2025; cited from earlier work
late hNav1.5 = late hNav1.5 (Homo sapiens, UniProt Q14524); assay: Late hNav1.5 inhibition in vitro; format: cell-based
hNav1.5 = hNav1.5 (Homo sapiens, UniProt Q14524); assay: Automated patch-clamp (QPatch) on hNav1.5 (peak sodium current)
Protocol: as §1, §2

QTc = conditions: clinical, administered in isolation; ref El Kadri et al., 2022; Morrisette et al., 2020; cited from earlier work
hCav1.2 = hCav1.2 (Homo sapiens, UniProt Q13936); assay: Automated patch-clamp (SyncroPatch) on hCav1.2
Protocol: as §1, §2

hKv4.3 = biological target: T2, hKv4.3 (Homo sapiens, UniProt Q9UK17); assay: Automated patch-clamp (QPatch) on hKv4.3; format: cell-based
T2 construct: expressed in transfected cells
T2 sequence (Q9UK17 1-655): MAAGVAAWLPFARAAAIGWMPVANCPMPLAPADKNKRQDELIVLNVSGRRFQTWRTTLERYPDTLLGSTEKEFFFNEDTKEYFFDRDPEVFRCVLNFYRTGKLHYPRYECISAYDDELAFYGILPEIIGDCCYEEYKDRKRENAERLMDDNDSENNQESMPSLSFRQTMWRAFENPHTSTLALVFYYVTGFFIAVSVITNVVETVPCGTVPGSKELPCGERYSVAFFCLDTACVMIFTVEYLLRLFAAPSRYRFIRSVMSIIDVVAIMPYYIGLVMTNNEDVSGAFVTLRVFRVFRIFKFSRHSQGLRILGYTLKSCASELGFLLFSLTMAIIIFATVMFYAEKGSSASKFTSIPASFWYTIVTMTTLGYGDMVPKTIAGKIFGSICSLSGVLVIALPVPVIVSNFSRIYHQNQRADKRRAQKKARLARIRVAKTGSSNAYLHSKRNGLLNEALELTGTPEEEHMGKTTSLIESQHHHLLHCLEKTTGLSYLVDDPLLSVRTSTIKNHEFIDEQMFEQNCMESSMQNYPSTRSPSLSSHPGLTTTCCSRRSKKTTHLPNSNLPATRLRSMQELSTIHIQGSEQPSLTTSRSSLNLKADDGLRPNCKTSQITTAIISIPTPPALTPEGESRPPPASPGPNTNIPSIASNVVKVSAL
Excerpt: Following the procedure in [Trovato et al. (2022)], we used automated patch-clamp platforms to study four ionic currents relevant to human repolarisation, as outlined by [Zhou et al. (2020)] as the minimum set of ion channels, marked by the CiPA Ion Channel Work Group, for reliable predictions of repolarisation abnormalities. […] The QPatch system (Sophion, Denmark) was used to investigate hERG, hNav1.5 and hKv4.3, and the SyncroPatch system (Nanion, Germany) was employed for hCav1.2. Recordings for all 37 compounds were performed at 21 °C.
as §2

[1] = CHO cells, calcium mobilization

hCav1.2, sequence (Q13936 whole entry): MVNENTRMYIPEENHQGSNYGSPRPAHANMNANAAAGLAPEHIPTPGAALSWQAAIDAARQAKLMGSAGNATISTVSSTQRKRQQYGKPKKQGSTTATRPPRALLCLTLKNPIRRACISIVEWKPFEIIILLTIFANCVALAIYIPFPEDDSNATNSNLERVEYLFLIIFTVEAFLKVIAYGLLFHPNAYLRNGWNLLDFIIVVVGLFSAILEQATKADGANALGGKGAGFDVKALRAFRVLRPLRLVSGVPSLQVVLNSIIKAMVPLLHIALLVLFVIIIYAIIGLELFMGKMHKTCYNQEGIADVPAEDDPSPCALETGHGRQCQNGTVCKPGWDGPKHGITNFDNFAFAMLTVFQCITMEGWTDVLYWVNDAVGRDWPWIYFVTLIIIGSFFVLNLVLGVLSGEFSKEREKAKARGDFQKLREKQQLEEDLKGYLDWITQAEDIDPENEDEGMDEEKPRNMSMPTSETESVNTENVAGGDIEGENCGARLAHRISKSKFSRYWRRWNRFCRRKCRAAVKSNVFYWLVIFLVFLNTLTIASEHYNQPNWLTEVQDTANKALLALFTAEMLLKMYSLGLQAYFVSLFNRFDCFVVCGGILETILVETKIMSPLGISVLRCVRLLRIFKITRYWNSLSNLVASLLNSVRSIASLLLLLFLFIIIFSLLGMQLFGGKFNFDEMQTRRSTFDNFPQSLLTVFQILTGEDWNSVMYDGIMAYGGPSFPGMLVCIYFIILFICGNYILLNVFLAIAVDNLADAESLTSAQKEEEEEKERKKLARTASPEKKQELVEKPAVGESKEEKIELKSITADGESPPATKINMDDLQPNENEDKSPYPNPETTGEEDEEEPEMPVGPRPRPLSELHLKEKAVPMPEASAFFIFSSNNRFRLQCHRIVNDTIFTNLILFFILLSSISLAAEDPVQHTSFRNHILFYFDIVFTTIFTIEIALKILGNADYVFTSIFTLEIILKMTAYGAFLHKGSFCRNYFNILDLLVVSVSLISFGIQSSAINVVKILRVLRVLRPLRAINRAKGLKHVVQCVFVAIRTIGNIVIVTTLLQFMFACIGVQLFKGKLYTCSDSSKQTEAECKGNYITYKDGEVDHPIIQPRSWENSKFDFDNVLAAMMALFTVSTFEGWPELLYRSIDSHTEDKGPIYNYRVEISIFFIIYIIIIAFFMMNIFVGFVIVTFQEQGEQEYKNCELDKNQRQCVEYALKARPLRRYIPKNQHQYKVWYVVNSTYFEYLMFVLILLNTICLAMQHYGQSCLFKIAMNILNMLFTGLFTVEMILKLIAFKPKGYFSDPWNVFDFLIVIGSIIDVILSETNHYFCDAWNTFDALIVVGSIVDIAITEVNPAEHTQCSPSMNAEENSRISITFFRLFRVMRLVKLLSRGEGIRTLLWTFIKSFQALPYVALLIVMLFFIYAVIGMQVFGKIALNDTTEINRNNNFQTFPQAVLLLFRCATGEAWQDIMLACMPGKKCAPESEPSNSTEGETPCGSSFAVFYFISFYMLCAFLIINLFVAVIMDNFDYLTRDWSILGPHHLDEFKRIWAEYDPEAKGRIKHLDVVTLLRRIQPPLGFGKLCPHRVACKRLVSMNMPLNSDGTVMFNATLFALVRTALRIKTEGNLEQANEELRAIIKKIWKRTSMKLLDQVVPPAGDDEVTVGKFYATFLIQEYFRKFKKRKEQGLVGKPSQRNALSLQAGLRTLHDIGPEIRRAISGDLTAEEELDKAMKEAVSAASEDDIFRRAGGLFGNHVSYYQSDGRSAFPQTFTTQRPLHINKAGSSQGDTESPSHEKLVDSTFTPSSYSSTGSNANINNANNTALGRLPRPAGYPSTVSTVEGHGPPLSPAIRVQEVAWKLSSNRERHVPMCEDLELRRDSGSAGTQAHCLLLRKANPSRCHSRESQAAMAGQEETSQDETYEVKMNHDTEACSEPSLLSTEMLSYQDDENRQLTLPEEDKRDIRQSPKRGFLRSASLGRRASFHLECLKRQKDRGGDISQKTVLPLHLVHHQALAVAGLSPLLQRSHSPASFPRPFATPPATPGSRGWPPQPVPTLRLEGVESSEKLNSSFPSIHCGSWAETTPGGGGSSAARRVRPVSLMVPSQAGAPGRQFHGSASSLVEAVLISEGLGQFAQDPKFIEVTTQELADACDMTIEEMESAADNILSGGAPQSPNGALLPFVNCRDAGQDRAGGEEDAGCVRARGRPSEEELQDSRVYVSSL
hCav1.2, sequence (Q08289 whole entry partner): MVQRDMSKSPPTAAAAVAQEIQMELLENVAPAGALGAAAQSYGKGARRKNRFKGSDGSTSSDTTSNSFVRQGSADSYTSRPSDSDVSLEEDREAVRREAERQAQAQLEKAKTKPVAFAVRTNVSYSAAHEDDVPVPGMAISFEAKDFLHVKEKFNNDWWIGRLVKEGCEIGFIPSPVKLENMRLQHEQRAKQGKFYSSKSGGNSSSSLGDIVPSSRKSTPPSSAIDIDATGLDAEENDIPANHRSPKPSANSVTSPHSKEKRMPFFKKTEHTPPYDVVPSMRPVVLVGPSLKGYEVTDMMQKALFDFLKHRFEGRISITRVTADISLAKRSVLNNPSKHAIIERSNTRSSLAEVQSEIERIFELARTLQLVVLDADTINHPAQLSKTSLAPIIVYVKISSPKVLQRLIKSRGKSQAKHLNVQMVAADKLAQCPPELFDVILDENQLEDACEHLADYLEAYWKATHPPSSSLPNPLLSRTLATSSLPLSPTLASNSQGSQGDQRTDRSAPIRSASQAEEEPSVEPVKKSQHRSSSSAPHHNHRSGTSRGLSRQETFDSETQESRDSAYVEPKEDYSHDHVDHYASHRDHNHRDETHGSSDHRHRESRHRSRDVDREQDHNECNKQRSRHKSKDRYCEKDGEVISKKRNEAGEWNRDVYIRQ
hCav1.2, sequence (P54289 25-956 partner limits assumed): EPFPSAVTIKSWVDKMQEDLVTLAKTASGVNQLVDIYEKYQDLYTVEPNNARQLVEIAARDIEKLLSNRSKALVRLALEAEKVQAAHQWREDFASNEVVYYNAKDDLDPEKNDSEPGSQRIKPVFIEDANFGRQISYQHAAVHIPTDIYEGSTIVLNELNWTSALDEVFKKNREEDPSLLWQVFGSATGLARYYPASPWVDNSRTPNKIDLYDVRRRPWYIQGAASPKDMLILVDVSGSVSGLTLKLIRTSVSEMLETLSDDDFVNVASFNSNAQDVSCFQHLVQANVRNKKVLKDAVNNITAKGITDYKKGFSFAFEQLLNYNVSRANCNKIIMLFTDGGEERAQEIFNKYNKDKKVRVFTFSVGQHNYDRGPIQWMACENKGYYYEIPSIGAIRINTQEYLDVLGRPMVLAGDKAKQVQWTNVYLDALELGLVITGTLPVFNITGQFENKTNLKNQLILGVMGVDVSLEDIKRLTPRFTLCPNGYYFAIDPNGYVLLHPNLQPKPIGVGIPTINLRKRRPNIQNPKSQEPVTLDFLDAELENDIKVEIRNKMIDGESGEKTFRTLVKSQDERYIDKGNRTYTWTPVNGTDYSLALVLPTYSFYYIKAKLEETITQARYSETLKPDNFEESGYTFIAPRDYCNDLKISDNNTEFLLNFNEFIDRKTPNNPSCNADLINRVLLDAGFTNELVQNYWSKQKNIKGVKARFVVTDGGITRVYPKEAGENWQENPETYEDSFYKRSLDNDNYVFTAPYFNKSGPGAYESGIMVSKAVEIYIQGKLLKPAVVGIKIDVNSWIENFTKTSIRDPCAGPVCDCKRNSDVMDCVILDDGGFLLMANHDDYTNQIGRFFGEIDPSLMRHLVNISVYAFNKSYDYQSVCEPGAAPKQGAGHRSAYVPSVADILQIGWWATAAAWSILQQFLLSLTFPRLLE
hCav1.2, sequence (P54289 957-1103 partner limits assumed): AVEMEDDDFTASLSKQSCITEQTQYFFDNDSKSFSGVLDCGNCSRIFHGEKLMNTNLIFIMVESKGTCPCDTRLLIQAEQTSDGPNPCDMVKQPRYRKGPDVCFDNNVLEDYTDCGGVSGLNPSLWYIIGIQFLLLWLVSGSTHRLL
hERG channel, sequence (Q12809 whole entry): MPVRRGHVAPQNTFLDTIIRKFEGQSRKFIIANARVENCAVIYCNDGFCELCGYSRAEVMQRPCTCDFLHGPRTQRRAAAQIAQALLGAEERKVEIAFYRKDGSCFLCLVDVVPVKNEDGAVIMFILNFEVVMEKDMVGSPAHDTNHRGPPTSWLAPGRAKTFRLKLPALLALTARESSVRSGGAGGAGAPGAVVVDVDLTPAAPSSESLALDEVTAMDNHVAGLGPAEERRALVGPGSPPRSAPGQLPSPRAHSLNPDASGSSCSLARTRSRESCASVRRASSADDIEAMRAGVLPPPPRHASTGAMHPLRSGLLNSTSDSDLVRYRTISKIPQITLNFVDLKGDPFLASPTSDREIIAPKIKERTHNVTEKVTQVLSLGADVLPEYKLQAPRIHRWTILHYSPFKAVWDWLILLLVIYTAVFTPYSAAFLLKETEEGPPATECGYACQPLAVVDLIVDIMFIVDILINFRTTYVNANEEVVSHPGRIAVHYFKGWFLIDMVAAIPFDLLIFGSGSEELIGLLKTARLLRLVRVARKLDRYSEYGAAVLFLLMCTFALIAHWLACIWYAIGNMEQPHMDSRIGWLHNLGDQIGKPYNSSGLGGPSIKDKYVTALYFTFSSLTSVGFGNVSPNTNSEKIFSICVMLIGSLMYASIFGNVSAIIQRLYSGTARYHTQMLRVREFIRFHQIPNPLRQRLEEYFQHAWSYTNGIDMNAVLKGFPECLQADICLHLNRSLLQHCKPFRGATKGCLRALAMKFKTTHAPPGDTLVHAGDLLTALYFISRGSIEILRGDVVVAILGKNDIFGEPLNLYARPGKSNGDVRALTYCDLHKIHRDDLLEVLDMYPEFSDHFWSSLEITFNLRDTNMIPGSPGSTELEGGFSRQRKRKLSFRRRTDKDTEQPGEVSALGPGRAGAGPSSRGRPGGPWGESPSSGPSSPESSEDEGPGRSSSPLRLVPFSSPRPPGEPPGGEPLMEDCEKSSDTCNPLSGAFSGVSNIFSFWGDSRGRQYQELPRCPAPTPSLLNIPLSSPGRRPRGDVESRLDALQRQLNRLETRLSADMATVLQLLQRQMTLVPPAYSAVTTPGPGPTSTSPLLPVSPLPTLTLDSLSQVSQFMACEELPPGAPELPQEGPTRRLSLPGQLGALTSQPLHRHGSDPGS

Row | Structure (SMILES) | hNCX1 % block @ 30 µM (hNCX1) | IC50 (hERG channel) | IC50 (hNav1.5) | IC50 (hCav1.2) | further results
1 | CC(CCc1ccc(O)cc1)NCCc1ccc(O)c(O)c1 (centres unmarked) [Dobutamine] | 15.00% | 22.1 µM | – | – | increase in ventricular pressure (isolated rabbit heart): 17%; NCX inhibition (hNCX1): does not inhibit; increase of L-type calcium current (factor) (L-type calcium current): 1.22
2 | CCN(CCO)CCCC(C)Nc1ccnc2cc(Cl)ccc12 (centres unmarked) [SA1068, Hydroxychloroquine] | 14% | 7 µM | 90 µM | 7.6 µM | Late Nav1.5 % block @ 30 µM (late hNav1.5; 30 µM): 15%; IC50 (late hNav1.5; read-out: Late Nav1.5 IC50): > 30 µM; IC50 (hNCX1; [1]): > 30 µM; average increase in QTc (QTc): 11 ms
3 | [H]/N=C(\N/C(=N/[H])Nc1ccc(Cl)cc1)NC(C)C [SA1790, Paludrine] | – | > 30 µM | – | – | –
4 | CN(C)C(=O)C(CCN1CCC(O)(c2ccc(Cl)cc2)CC1)(c1ccccc1)c1ccccc1 [SA2089, Loperamide] | – | – | 2.1 µM | 3.9 µM | –
5 | COC(=O)N1CCN(Cc2cccc(NC(=O)Nc3ccc(C)nc3)c2F)CC1 [SA3064, Omecamtiv] | – | – | – | – | IC50 (hERG channel; read-out: hERG IC50, automated patch-clamp, 21 °C, IC50 not achieved taken at maximum concentration or estimated with Hill coefficient 1): 126 µM
6 | C=C(C)[C@@H]1CCC(C)=C[C@H]1c1c(O)cc(CCCCC)cc1O [SA5067, Cannabidiol] | – | 21.8 µM | 28.1 µM | 11.8 µM | hNCX1 nh (Hill coefficient) (hNCX1; [1]): nH 1.7; IC50 (hNCX1; [1]): 18.9 µM; IC50 (hKv4.3): 7.75 µM
7 | CN1CCN(C2=Nc3cc(Cl)ccc3Nc3ccccc32)CC1 [SA5332, Clozapine] | – | – | 23.2 µM | – | IC50 (hKv4.3; automated patch-clamp, 21 °C, IC50 not achieved taken at maximum concentration or estimated with Hill coefficient 1, read-out: Kv4.3 IC50): 61.7 µM
8 | CCN(CC)CC(=O)Nc1c(C)cccc1C [SA5350, Lidocaine] | 6.00% | – | – | – | –
9 | C[C@@H]1OCC2(CCN(c3cnc(Sc4ccnc(N)c4Cl)c(N)n3)CC2)[C@@H]1N [SA6687, Batoprotafib] | – | 8 µM | – | – | –
10 | CN=C(N)NC(=O)Nc1c(C)cccc1C [SA9977, Lidamidine] | 17.00% | – | – | – | IC50 (hERG channel; human): > 30 µM
